From PMC4164440, “Blood Pressure-Lowering Peptides from Neo-Fermented Buckwheat Sprouts: A New Approach to Estimating ACE-Inhibitory Activity” (PLoS ONE, 2014)
Where two headings read alike, the source gives them in different places. Where a SMILES comes first, the peptide text is derived from it.

What was measured:
[1] = target: T1, ACE (EC 3.4.15.1) purified from the rabbit lungs (Oryctolagus cuniculus, UniProt P12822); assay: biochemical
T1 construct: ACE (EC 3.4.15.1) purified from the rabbit lungs; purchased Sigma-Aldrich Japan K.K; host or cells: rabbit lung (tissue-purified)
T1 sequence (P12822 34-1310): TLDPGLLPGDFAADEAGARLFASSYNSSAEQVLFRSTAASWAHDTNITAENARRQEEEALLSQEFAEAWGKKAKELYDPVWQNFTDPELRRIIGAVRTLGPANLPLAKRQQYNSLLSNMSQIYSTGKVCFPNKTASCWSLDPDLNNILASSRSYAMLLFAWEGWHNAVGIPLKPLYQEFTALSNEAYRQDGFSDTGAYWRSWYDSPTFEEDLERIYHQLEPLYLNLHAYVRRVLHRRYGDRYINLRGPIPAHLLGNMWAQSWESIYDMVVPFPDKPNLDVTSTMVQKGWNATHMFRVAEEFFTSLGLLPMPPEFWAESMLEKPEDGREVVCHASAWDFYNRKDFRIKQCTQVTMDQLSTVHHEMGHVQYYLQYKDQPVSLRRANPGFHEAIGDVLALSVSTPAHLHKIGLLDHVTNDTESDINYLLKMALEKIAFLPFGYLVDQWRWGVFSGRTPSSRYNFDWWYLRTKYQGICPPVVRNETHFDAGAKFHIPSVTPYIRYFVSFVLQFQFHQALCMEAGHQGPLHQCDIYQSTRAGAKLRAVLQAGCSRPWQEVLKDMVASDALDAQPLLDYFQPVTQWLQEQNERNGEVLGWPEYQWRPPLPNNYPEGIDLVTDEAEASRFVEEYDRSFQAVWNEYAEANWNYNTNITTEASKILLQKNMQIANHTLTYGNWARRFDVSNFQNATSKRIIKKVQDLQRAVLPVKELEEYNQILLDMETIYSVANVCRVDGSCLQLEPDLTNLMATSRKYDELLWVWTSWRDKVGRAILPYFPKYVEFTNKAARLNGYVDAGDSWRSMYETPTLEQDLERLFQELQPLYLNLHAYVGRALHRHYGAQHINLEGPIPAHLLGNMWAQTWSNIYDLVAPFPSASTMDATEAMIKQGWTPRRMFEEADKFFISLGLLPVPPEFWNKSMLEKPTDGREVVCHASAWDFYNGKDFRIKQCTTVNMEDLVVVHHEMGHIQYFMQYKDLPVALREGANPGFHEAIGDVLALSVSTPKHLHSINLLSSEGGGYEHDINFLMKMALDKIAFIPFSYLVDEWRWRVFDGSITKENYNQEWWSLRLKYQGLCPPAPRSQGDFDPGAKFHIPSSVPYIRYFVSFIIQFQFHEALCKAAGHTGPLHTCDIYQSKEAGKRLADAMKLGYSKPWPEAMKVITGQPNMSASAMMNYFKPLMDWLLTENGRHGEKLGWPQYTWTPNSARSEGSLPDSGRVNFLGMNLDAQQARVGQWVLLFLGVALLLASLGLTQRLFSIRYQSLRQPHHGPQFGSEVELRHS
Text: ACE (EC 3.4.15.1) purified from the rabbit lungs was obtained from Sigma-Aldrich Japan K.K. (Tokyo, Japan). Hippuryl-L-histidyl-L-leucine (Hip-His-Leu) was obtained from the Peptide Institute (Osaka, Japan). Ammonium formate, borate, diethyl ether, ethyl acetate, formate, hydrochloric acid (HCl), HPLC-grade acetonitrile, sodium chloride (NaCl), potassium chloride (KCl), potassium dihydrogen phosphate (KH2PO4), magnesium acetate (Mg(CH3COO)2), magnesium sulfate (MgSO4), Nonidet P-40, sodium hydrogen carbonate (NaHCO3), sucrose, and tris(hydroxymethyl)aminomethane were purchased from Kanto Chemical Co., Inc. (Tokyo, Japan). Trifluoroacetic acid (TFA) was purchased from Watanabe Chemical Industries, Ltd. (Hiroshima, Japan).
The in vitro ACE inhibition assay was performed using the method described previously. […] Then, 100 µL of commercial ACE (6.0 mU) was added, and the mixture was incubated at 37°C for 30 min. The reaction was stopped by 250 µL of 1.0 N HCl. Released hippuric acid (Hip) was extracted with 1.0 mL ethyl acetate and quantified by HPLC according to our previous report.

[2] = target: T2, Ang II-mediated vasoconstriction (Rattus norvegicus, UniProt P47820); assay: Ex vivo ACE inhibition assay: Ang II-mediated vasoconstriction of endothelium-denuded thoracic aorta rings; parameters: species or system spontaneously hypertensive rats (SHRs); details: 0.2 µM Ang I, read-out: EC50 of suppression of Ang II-mediated vasoconstriction
T2 sequence (P47820 36-1313): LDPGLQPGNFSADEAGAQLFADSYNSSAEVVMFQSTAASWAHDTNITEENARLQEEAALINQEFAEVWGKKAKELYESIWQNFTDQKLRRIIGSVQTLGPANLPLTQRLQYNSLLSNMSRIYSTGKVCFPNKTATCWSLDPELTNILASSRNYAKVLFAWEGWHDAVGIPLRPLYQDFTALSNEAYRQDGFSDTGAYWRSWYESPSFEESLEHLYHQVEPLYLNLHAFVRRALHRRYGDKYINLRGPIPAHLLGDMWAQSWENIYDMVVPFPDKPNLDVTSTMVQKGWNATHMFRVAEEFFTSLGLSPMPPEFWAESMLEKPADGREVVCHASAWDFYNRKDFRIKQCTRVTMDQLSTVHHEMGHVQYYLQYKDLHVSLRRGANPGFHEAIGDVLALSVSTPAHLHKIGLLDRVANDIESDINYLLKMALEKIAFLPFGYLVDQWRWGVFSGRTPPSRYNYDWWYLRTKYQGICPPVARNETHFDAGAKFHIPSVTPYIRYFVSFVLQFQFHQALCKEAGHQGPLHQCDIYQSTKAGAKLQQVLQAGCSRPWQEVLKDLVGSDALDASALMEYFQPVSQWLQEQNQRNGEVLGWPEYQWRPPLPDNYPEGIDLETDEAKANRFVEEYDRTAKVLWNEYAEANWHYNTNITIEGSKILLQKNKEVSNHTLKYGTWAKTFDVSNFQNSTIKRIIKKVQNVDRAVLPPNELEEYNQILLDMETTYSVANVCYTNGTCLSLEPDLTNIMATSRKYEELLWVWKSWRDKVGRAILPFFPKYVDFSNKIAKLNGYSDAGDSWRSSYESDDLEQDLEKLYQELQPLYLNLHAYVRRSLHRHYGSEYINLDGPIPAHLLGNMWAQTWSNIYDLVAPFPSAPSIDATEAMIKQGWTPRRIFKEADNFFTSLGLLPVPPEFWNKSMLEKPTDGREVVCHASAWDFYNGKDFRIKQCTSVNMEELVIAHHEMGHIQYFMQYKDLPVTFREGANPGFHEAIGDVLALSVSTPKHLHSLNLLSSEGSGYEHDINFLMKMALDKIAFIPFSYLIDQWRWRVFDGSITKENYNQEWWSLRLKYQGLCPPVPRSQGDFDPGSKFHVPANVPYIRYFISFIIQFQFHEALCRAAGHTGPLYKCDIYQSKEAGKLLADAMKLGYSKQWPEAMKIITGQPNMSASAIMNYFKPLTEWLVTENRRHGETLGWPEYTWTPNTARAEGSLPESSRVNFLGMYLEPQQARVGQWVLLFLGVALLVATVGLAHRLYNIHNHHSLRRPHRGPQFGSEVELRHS

[3] = target: T3, ACE in thoracic aorta tissue (Rattus norvegicus, UniProt P47820); assay: Ex vivo ACE inhibition assay: Ang II production in endothelium-denuded thoracic aorta rings (UPLC-MS)
T3 sequence (P47820 36-1313): T2 sequence (P47820 36-1313)
Procedure: Isolation of the thoracic aorta from SHRs (n = 12) and preparation of endothelium-denuded aortic rings was performed as described above. Endothelium was removed to eliminate the influence of endothelium-derived vasodilators.
After 30 min incubation, 1.0 mL of 0.20 µM Ang I was added and the aortic tension was recorded. When vasoconstriction plateaued, Krebs solution in the organ bath was transferred to a test tube and heated at 90°C for 5 min to stop the enzyme reaction; the heat-treated samples were dried under vacuum and frozen at −80°C until UPLC-MS analysis. The aorta rings were used in the BCA assay to express Ang II production as pmol/mg-protein.
Vacuum-dried samples were dissolved in 500 µL acetonitrile/4.0 mM ammonium formate (5∶95 v/v) with 4.0 mM formic acid prior to UPLC-MS analysis, performed at the CREFAS (Collaborated Research Center for Food Functions, Faculty of Agriculture, Shinshu University); Quattro micro API (MS) with an ACQUITY UPLC (Waters Co., USA) was used. Separation was conducted at 35°C using a CHEMCOBOND 5-ODS-W reversed-phase column (4.6×150 mm; ChemcoPlus Scientific Co., Ltd. Kyoto, Japan). […] Mass spectra were acquired in electrospray ionization (ESI) mode using 3500 V capillary voltage, 30 V cone voltage, 350 L/h N2 gas flow (desolvation), 50 L/h N2 gas flow (cone), 100°C source temperature, and 350°C desolvation temperature. […] For each sample, measurements were performed in triplicate; the results were expressed as the mean ± S.E.

[4] = test system: systolic and diastolic blood pressure; details: SHRs; ref [8]; cited from earlier work
ACE = test system: ACE; parameters: method as in PMID 7673515; details: ref [7], [8]; read-out: in vitro ACE-inhibitory activity IC50; cited from earlier work
[5] = Hip-His-Leu substrate, mean ± S.E., n = 3, read-out: In vitro ACE-inhibitory activity IC50

Row | Molecule | IC50 [1] | EC50 [2] | IC50 [3] | IC50 [1, 5] | other results
1 | CC(C)[C@H](NC(=O)[C@@H](N)CC(=O)O)C(=O)N[C@@H](Cc1c[nH]c2ccccc12)C(=O)N[C@@H](Cc1ccc(O)cc1)C(=O)O [DVWY] (H-DVWY-OH) | 0.69 ± 0.04 mM | 68.2 µM | 70.5 µM | – | –
2 | C[C@H](NC(=O)[C@H](CC(=O)O)NC(=O)[C@@H](N)Cc1ccccc1)C(=O)N[C@@H](CCCNC(=N)N)C(=O)N[C@H](C(=O)O)[C@@H](C)O [FDART] (H-FDART-OH) | 1.9 ± 0.1 mM | 53.6 µM | 41.7 µM | – | –
3 | NC(=O)CC[C@H](NC(=O)[C@@H](N)Cc1ccccc1)C(=O)O [FQ] | – | 85.1 µM | 90.9 µM | 7.4 ± 0.6 mM | –
4 | CC(C)[C@H](N)C(=O)N[C@@H](C)C(=O)N[C@@H](CCC(=O)O)C(=O)O [VAE] (H-Val-Ala-Glu-OH) | – | – | – | 55.9 ± 1.9 mM | –
5 | CC(C)[C@H](N)C(=O)N[C@H](C(=O)NCC(=O)O)C(C)C [VVG] (H-Val-Val-Gly-OH) | – | – | – | 39.6 ± 5.7 mM | –
6 | C[C@@H](O)[C@H](NC(=O)[C@@H](N)Cc1c[nH]c2ccccc12)C(=O)N[C@@H](Cc1ccccc1)C(=O)N[C@@H](CCCNC(=N)N)C(=O)O [WTFR] (H-WTFR-OH) | 6.7 ± 0.5 mM | 36.8 µM | 5.64 µM | – | reduction of Ang II production ([3]; at 10 µM, endothelium-denuded rings, 0.2 µM Ang I): 59%
7 | Val-Tyr [VY] | – | – | – | – | minimum effective BPL dose [4]: 1.0 mg/kg; IC50 (ACE): 26 µM
